Legend:
5-HT2A receptor [1] = settings: cited from earlier work
[2] = system: NMDA/AMPA receptors and downstream BDNF and mTOR signaling; settings: compared with ketamine; cited from earlier work
[3] = system: glutamatergic NMDA NR2B (GluN2B) receptors; settings: mesolimbic; cited from earlier work
5-HT2A receptor [4] = settings: read-out: 5-HT2A receptor antagonism Ki; cited from earlier work
D2 receptor = settings: presynaptic D2 receptor partial agonism and postsynaptic D2 receptor antagonism; cited from earlier work
NMDA and AMPA receptor = settings: rat mPFC slices; cited from earlier work
[5] = system: PFC mTORC1-related signaling pathways; assay: PFC mTORC1-related signaling and neurotrophic factor genes after acute administration; assay type: in vivo
From the text: As a result, glutamate release is increased which enhances AMPA mediated currents, BDNF release, and mTORC1 activation. Increased synaptogenesis has been associated with enhanced mTORC1 signaling in the PFC.

[6] = system: patients with acute exacerbated schizophrenia; assay: Clinical studies in patients with acute exacerbated schizophrenia, emotional experience symptoms; assay type: in vivo, human; settings: 60 mg P.O. once daily, up to 28 days, two clinical studies, vs placebo
From the text: Social avoidance can be a critical and debilitating symptom in patients suffering from anxiety disorders, especially social anxiety disorder, as well as in patients suffering from traumatic anxiety disorders. Social avoidance is often one of the key determinants of whether a person with a severe anxiety disorder is capable of maintaining familial relationships or employment relationships. […] Negative symptoms of schizophrenia can be divided into two categories: emotional experience (e.g., emotional withdrawal, passive social withdrawal, active social avoidance) and emotional expression (e.g., blunted effect, poor rapport, lack of spontaneity, and motor retardation). […] These are the symptoms that are most highly correlated with interpersonal functioning.

[7] = in vivo; cited from earlier work
right lateral PFC = settings: patients with MDD, after ketamine treatment; cited from earlier work
5-HT2A receptor [8] = settings: pre-treatment; cited from earlier work
serotonin receptor = settings: pre-treatment, dose blocking about 30% of 5-HT2A receptors; cited from earlier work
[9] = system: dendritic spines in cells of the frontal cortex; settings: cited from earlier work
[10] = system: medial prefrontal cortex neurons; settings: mouse, in vivo; cited from earlier work

SMILES: CN1CCN2c3c(cccc31)[C@@H]1CN(CCCC(=O)c3ccc(F)cc3)CC[C@@H]12 [Lumateperone, 4-((6bR,10aS)-3-methyl-2,3,6b,9,10,10a-hexahydro-1H-pyrido[3′,4′: 4,5]pyrrolo[1,2,3-de]quinoxalin-8 (7H)-yl)-1-(4-fluorophenyl)-1-butanone]
- 5-HT2A receptor functional activity (5-HT2A receptor [1]): strong antagonist of the 5-HT2A receptor
- serotonin receptor agonist activity (5-HT2A receptor [1]): does not have serotonin receptor agonist activity
- activity on NMDA/AMPA receptors and downstream BDNF and mTOR signaling [2]: very similar activity on NMDA/AMPA receptors and downstream BDNF and mTOR signaling as ketamine
- phosphorylation of NMDA NR2B (GluN2B) receptors [3]: stimulates phosphorylation of glutamatergic NMDA NR2B (GluN2B) receptors in a mesolimbic specific manner
- Ki (5-HT2A receptor [4]): 0.5 nM
- Ki (D2 receptor): 32 nM
- glutamatergic neurotransmission, NMDA and AMPA receptor conductance (NMDA and AMPA receptor): enhance glutamatergic neurotransmission by effects on both NMDA and AMPA receptor conductance
- PFC mTORC1-related signaling and neurotrophic factor genes [5]: stimulates PFC mTORC1-related signaling pathways, as well as some important genes coding for neurotrophic factors, such as BDNF and VEGF
- symptoms of emotional experience [6]: significant and unexpected improvement in symptoms of emotional experience compared to placebo

SMILES: CN(C)CCc1c[nH]c2cccc(O)c12 [Psilocin]
- 5-HT2A receptor functional activity (5-HT2A receptor [1]): strong agonist of the 5-HT2A receptor
- side effects [7]: can cause nausea and panic attacks

SMILES: CNC1(c2ccccc2Cl)CCCCC1=O (centres unmarked) [ketamine]
- functional connectivity in the right lateral PFC (right lateral PFC): improved functional connectivity in the right lateral PFC

SMILES: O=C(c1ccc(F)cc1)C1CCN(CCn2c(=O)[nH]c3ccccc3c2=O)CC1 [ketanserin]
- 5-HT2A receptors blocked (5-HT2A receptor [8]): about 30%
- psilocybin-induced head twitch response (serotonin receptor): sufficient to block the psilocybin-induced head twitch response
- effect on psilocybin-induced growth of dendritic spines ([9]; pre-treatment with 5-HT2A receptor antagonist): did not eliminate the psilocybin-induced growth of dendritic spines

SMILES: CN(C)CCc1c[nH]c2cccc(OP(=O)(O)O)c12 [psilocybin]
- 5-HT2A receptor functional activity (5-HT2A receptor [1]): strong agonist of the 5-HT2A receptor
- persistence of changes in dendritic spine density ([9]; following the single dose): at least a month
- dendritic spine formation/elimination rate ([9]; male and female mice): increased formation rate, rather than reduced elimination rate
- dendritic spine density and spine head width ([9]; single dose, within one day): measurable increase in dendritic spine density, as well as increased spine head width, within one day
- excitatory neurotransmission in medial prefrontal cortex (mEPSCs) [10]: increased excitatory neurotransmission in the medial prefrontal cortex

From patent publication US20260345598A1 (INTRA-CELLULAR THERAPIES, INC., priority 2023, published 2026)
